Test results taken from patent US11220479B2, “Glucosylceramide synthase inhibitors and therapeutic methods using the same” (THE REGENTS OF THE UNIVERSITY OF MICHIGAN, priority 2019, dated 2022).
Structures can show the parent of a compound that is named as a salt.

Assays:
[1] = Half-life when incubated with mouse liver microsomes (MLM); type: in vitro ADME; settings: half-life when incubated with mouse liver microsomes; read-out: MLM T½
Method: (§1) ^a Inhibition of GlcCer production in whole wild-type MDCKII cells. ^bHalf-life when incubated with mouse liver microsomes. ^cAreas under the drug concentration curve after single IP dose in mice (10 mg/kg). ^dReduction in brain levels of glucosylceramide in CBE mice after 14 days of qd dosing with test drug administered IP. NC=no change.

[2] = IP PK: areas under the drug concentration curve after single IP dose in mice; type: in vivo; settings: for IP PK Brain AUC / AUC: mice, single IP dose 10 mg/kg; for AUC: mouse, plasma
[3] = system: brain glucosylceramide (GCS inhibition); test: Reduction of brain glucosylceramide in CBE mice; type: in vivo; settings: qd, 14 days
Method: Reduction of Brain Glucosylceramide and Glucosylsphingosine in CBE Mice
The reduction by inhibitors of GCS in brain glucosylceramide and glucosylsphingosine content was determined by the use of mice with Gba 1 mutant alleles, termed D409V/null. These are knock-in mice with a Gba 1 point mutation encoding Valine (V) 409 for the wild type (WT) Aspartate (D) on one missense allele and a null heteroallele [D409V/null (9V/null)]. The D409V/null and WT littermates were of mixed gender and mixed, but matched, genetic backgrounds of C57BL/129Sv/FVB. (Xu Y H, Sun Y, Barnes S, Grabowski G A (2010) Comparative therapeutic effects of velaglucerase alfa and imiglucerase in a Gaucher disease mouse model. PLoS One 5: e10750.) Mice were treated with intraperitoneal conduritol B epoxide (CBE), an irreversible inhibitor of beta-glucocerebrosidase (25 mg/kg/day) for all groups beginning at post-partum day 15. Mice were concurrently treated with GCS inhibitor or vehicle control for 14 days. The mice were sacrificed 2 hours following the last injection and tissues including brain, liver, spleen, kidney and lung were analyzed for glucosylceramide and glucosylsphingosine by mass spectrometry.
(§2) Mouse Tissue Lipid Analysis
(§3) Lipid extractions of liver, kidney, and brain were performed as previously described (7). Briefly, frozen liver (about 0.5 g), two kidneys (about 0.3 g) and whole brain (about 0.4 g) were individually homogenized in sucrose buffer (250 mM sucrose, pH 7.4, 10 mM HEPES and 1 mM EDTA), at 0.2 g tissue/1 mL of sucrose buffer, with a Tri-R homogenizer. Each 0.8 mL of homogenate was mixed with 2 mL of methanol and 1 mL of chloroform, bath sonicated for 1 min and incubated at room temperature for 1 h. Tissue debris were removed by centrifugation at 2,400× gravity for 30 min. The pellets were re-extracted by mixing with 1 mL of methanol, 0.5 mL of chloroform and 0.4 mL of 0.9% NaCl (chloroform/methanol/0.9% NaCl, 1:2:0.8), incubated at room temperature for 1 h and centrifuged at 2,400× gravity for another 30 min. Two extracts were combined and mixed with 4.5 mL of chloroform and 1.2 mL of 0.9% NaCl (chloroform/methanol/0.9% NaCl, 2:1:0.8). After centrifugation at 800× gravity for 5 min, lower layer was washed with 3 mL of methanol and 2.4 mL of 0.9% NaCl. Second washing was carried with 3 mL of methanol, 2 mL of water and 0.4 mL of 0.9% NaCl followed by a 5 min centrifugation at 800× gravity. The resultant lower phase was collected and dried under a stream of N2 gas.
The analysis of neutral glycosphingolipids from mouse liver, kidney, and brain was processed after alkaline methanolysis. […] lipids were incubated with 2 mL of chloroform and 1 ml of 0.21N NaOH in methanol for 2 h (kidney) or 7.5 h (liver and brain) at RT. The lipid extract was normalized to 0.5 μmol of total phospholipid phosphate (liver and kidney) or 2 μmol of total phospholipid phosphate (brain) for high performance thin layer chromatography analysis. After alkaline methanolysis, the brain lipids were passed through a silica gel column (7). Borate-impregnated thin layer chromatography plates were developed in a two solvent system. Plates were first developed in chloroform/methanol (98:2, v/v). The plates loaded with kidney and liver lipids were then developed in chloroform/methanol/water (64:24:4, v/v/v), and brain lipids were further separated in chloroform/methanol/water (60:30:6, v/v/v). GlcCer levels were quantified by comparison to known standards.
as §1

[4] = biological target: T1, glucosylceramide synthase (GCS) (Canis lupus familiaris, UniProt A0A8I3MXG6); test: GCS inhibition in MDCKII cells (inhibition of GlcCer production in whole wild-type MDCKII cells); type: cell-based; settings: inhibition of GlcCer production in whole wild-type MDCKII cells, 24 hours; read-out: MDCK IC50
T1 construct: endogenous in cells; host or cells: parental (wild-type) MDCKII cells
T1 sequence (A0A8I3MXG6 1-394): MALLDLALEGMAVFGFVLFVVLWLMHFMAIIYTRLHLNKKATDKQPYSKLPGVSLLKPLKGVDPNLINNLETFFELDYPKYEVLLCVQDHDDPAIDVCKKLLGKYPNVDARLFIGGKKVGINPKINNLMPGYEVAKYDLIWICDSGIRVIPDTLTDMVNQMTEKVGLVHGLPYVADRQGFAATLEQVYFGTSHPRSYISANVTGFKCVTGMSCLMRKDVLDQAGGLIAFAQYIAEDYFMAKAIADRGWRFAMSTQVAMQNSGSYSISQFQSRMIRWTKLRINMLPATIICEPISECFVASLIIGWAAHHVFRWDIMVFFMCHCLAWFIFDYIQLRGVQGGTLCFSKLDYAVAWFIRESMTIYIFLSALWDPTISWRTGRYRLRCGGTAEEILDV
Method: GCS Inhibition in MDCKII Cells
Parental (WT-)MDCKII cells were routinely maintained in medium consisting of Opti-MEM/F12 (1:1), 5% FBS, 100 U/mL of penicillin, 100 μg/mL streptomycin and 200 mM L-glutamine. MDCKII cells were newly thawed from frozen ampules every two months.
The inhibitor-ethanol solutions then were diluted 50× into 2 mM delipidated bovine serum albumin-phosphate buffered saline solution to make water-soluble glycosphingolipid inhibitor-bovine serum albumin complexes. The inhibitor-bovine serum album complexes were sterile-filtered and stored at −20° C. Prior to use, portions of the inhibitor-bovine serum albumin complexes were further diluted with Opti-F12 to make treatment solutions. Equal amounts of bovine serum albumin and ethanol were added into the control cultures. Cells (5×10^5) were seeded into 10-cm culture dishes containing 10 ml of Opti-F12 with 5% FBS. After 24 hours, the medium was replaced with fresh serum-free Opti-F12 medium, and cells were exposed to candidate GCS inhibitors at concentrations of 0, 1, 3, 10, 30, 100 and 300 nM for 24 hours.
Briefly, cells were washed with ice-cold phosphate buffered saline, fixed by methanol, and collected with rubber scraper. Chloroform was then added to yield a theoretical ratio of chloroform:methanol:water at 1:2:0.8 (v/v/v) to form a mono-phase. Cell debris and proteins were removed by centrifugation at 2200×g for 30 min. The supernatants were portioned by adding chloroform and 0.9% NaCl. […] A portion of purified glycosphingolipids normalized to 100 nmol of total phospholipids was analyzed by high performance thin layer chromatography. The thin layer chromatography separations were processed twice. The plate pretreated with 1% sodium borate was first developed in a solvent system consisting of chloroform/methanol (98/2, v/v). After air drying, the plate was then developed in a solvent system containing chloroform/methanol/water (70/30/4, v/v/v). The levels of glucosylceramide were detected by charring with 8% cupric sulfate in 8% phosphoric acid, and quantified by densitometric scanning using ImageJ, NIH Image.

[5] = system: brain glucosylceramide content; test: Brain glucosylceramide content after intraperitoneal administration to mice for 3 days; type: in vivo; settings: intraperitoneal administration for 3 days
Method: The compounds were screened for inhibition of GCS in broken cell and whole cell assays, and for MDR1 substrate recognition.
as §2
as §3, with “Second washing was carried with 3 mL of methanol, 2 mL of water and 0.4 mL of 0.9% NaCl followed by a 5 min centrifugation at 800× gravity. The resultant lower phase was collected and dried under a stream of N2 gas.” left out
The analysis of neutral glycosphingolipids from mouse liver, kidney, and brain was processed after alkaline methanolysis. […] GlcCer levels were quantified by comparison to known standards.

O=C(CC1Cc2ccccc2C1)N[C@H](CN1CCCC1)[C@H](O)c1cccc(Cl)c1 [Example 1, N-((1R,2R)-1-(3-chlorophenyl)-1-hydroxy-3-(pyrrolidin-1-yl)propan-2-yl)-2-(2,3-dihydro-1H-inden-2-yl)acetamide]
half-life [1]: 18 min | IP PK Brain AUC [2]: 1.109 µg·h/mL | AUC [2]: 1.54 µg·h/mL | Reduction in brain GlcCer in CBE mice ([3]; 36 μmol/kg/day IP): 23% | IC50 [4]: 1 nM

CC(C)(C)Oc1ccc([C@@H](O)[C@@H](CN2CCCC2)NC(=O)CC2Cc3ccccc3C2)cc1Cl [Example 2, N-((1R,2R)-1-(4-(tert-butoxy)-3-chlorophenyl)-1-hydroxy-3-(pyrrolidin-1-yl)propan-2-yl)-2-(2,3-dihydro-1H-inden-2-yl)acetamide]
half-life [1]: 170 min | IP PK Brain AUC [2]: 1.316 µg·h/mL | AUC [2]: 1.99 µg·h/mL | Reduction in brain GlcCer in CBE mice ([3]; 26 μmol/kg/day IP): 21% | IC50 [4]: 0.081 nM

O=C(CC1Cc2ccccc2C1)N[C@H](CN1CCCC1)[C@H](O)c1ccc(OC2CC2)c(Cl)c1 [Example 4, N-((1R,2R)-1-(3-chloro-4-cyclopropoxyphenyl)-1-hydroxy-3-(pyrrolidin-1-yl)propan-2-yl)-2-(2,3-dihydro-1H-inden-2-yl)acetamide]
half-life [1]: 24 min | IP PK Brain AUC [2]: 0.293 µg·h/mL | AUC [2]: 1.02 µg·h/mL | Reduction in brain GlcCer in CBE mice ([3]; 26 μmol/kg/day IP): 33% | IC50 [4]: 0.14 nM

CC1(Oc2ccc([C@@H](O)[C@@H](CN3CCCC3)NC(=O)CC3Cc4ccccc4C3)cc2Cl)COC1 [Example 5, N-((1R,2R)-1-(3-chloro-4-((3-methyloxetan-3-yl)oxy)phenyl)-1-hydroxy-3-(pyrrolidin-1-yl)propan-2-yl)-2-(2,3-dihydro-1H-inden-2-yl)acetamide]
half-life [1]: 40 min | drug exposure in the brain versus compound lacking the 3-chloro substituent [2]: improved | IP PK Brain AUC [2]: 0.366 µg·h/mL | AUC [2]: 0.849 µg·h/mL | Reduction in brain GlcCer in CBE mice ([3]; 100 μmol/kg/day IP): 64% | IC50 [4]: 0.74 nM

CC1(C)COc2cc([C@@H](O)[C@@H](CN3CCCC3)NC(=O)CC3Cc4ccccc4C3)cc(Cl)c2O1 [Example 7, N-((1R,2R)-1-(8-chloro-2,2-dimethyl-2,3-dihydrobenzo[b][1,4]dioxin-6-yl)-1-hydroxy-3-(pyrrolidin-1-yl)propan-2-yl)-2-(2,3-dihydro-1H-inden-2-yl)acetamide]
half-life [1]: 44 min | drug exposure in the brain versus compound lacking the 3-chloro substituent [2]: improved | IP PK Brain AUC [2]: 0.129 µg·h/mL | AUC [2]: 0.59 µg·h/mL | Reduction in brain GlcCer in CBE mice ([3]; 26 μmol/kg/day IP): 49% | IC50 [4]: 0.061 nM

O=C(CC1Cc2ccc(F)cc2C1)N[C@H](CN1CCCC1)[C@H](O)c1cccc(Cl)c1 (stereo partly drawn) [Example 9, N-((1R,2R)-1-(3-chlorophenyl)-1-hydroxy-3-(pyrrolidin-1-yl)propan-2-yl)-2-(5-fluoro-2,3-dihydro-1H-inden-2-yl)acetamide]
half-life [1]: 50 min | IP PK Brain AUC [2]: 0.869 µg·h/mL | AUC [2]: 2.18 µg·h/mL | Reduction in brain GlcCer in CBE mice ([3]; 26 μmol/kg/day IP): 43% | IC50 [4]: 0.8 nM

O=C(N[C@H](CN1CCCC1)[C@H](O)c1ccc(OC2CC2)c(Cl)c1)OC1Cc2ccccc2C1 [Example 12, 2,3-dihydro-1H-inden-2-yl ((1R,2R)-1-(3-chloro-4-cyclopropoxyphenyl)-1-hydroxy-3-(pyrrolidin-1-yl)propan-2-yl)carbamate]
half-life [1]: 29 min | IP PK Brain AUC [2]: 0.21 µg·h/mL | AUC [2]: 0.37 µg·h/mL | Reduction in brain GlcCer in CBE mice ([3]; 26 μmol/kg/day IP): 32% | IC50 [4]: 0.32 nM

O=C(CC1Cc2ccccc2C1)N[C@H](CN1CCCC1)[C@H](O)c1cc(Cl)ccc1F [Example 23, N-((1R,2R)-1-(5-chloro-2-fluorophenyl)-1-hydroxy-3-(pyrrolidin-1-yl)propan-2-yl)-2-(2,3-dihydro-1H-inden-2-yl)acetamide]
half-life [1]: 24 min | IP PK Brain AUC [2]: BLQ | AUC [2]: 0.644 µg·h/mL | IC50 [4]: 0.17 nM

CCCCCCCC(=O)N[C@H](CN1CCCC1)[C@H](O)c1ccc2c(c1)OCCO2 [eliglustat tartrate, N-((1R,2R)-1-(2,3-dihydrobenzo-[b][1,4]dioxin-6-yl)-1-hydroxy-3-(pyrrolidin-1-yl)propan-2-yl)octanamide]
decrease in brain glucosylceramide content [5]: not seen
